From PubChem BioAssay AID1259407 (Chemical Carcinogenesis Research Information System (CCRIS), 2018)
Calls of active or inactive are those of the source. No rule for the calls is given here.

Test system: CCRIS mutagenicity, Ames/micronucleus/aberration tests
Assay: CCRIS mutagenicity studies

Measured: mutagenic call

CC(C)(OO)c1ccccc1
active: Test System: AMES SALMONELLA TYPHIMURIUM, Strain/Indicator: TA97A, Metabolic Activation: RAT LIVER S-9, AROCLOR 1254, Method: PREINCUBATION active; positive | Test System: AMES SALMONELLA TYPHIMURIUM, Strain/Indicator: TA98, Metabolic Activation: NONE, Method: FLUCTUATION (MICROTITER) active; positive | Test System: AMES SALMONELLA TYPHIMURIUM, Strain/Indicator: TA104, Metabolic Activation: RAT LIVER S-9, AROCLOR 1254, Method: PREINCUBATION active; positive | Test System: AMES SALMONELLA TYPHIMURIUM, Strain/Indicator: TA1537, Metabolic Activation: NONE, Method: FLUCTUATION (MICROTITER) active; positive | Test System: AMES SALMONELLA TYPHIMURIUM, Strain/Indicator: TA1537, Metabolic Activation: RAT LIVER S-9, AROCLOR 1254, Method: FLUCTUATION (MICROTITER active; positive | Test System: AMES SALMONELLA TYPHIMURIUM, Strain/Indicator: TA2638A, Metabolic Activation: NONE, Method: STANDARD PLATE active; positive | Test System: AMES SALMONELLA TYPHIMURIUM, Strain/Indicator: TA7001, Metabolic Activation: RAT LIVER S-9, AROCLOR 1254, Method: FLUCTUATION (MICROTITER) active; positive | Test System: AMES SALMONELLA TYPHIMURIUM, Strain/Indicator: TA7002, Metabolic Activation: NONE, Method: FLUCTUATION (MICROTITER) active; positive | Test System: AMES SALMONELLA TYPHIMURIUM, Strain/Indicator: TA7004, Metabolic Activation: NONE, Method: FLUCTUATION (MICROTITER) active; positive | Test System: AMES SALMONELLA TYPHIMURIUM, Strain/Indicator: TA7004, Metabolic Activation: RAT LIVER S-9, AROCLOR 1254, Method: FLUCTUATION (MICROTITER) active; positive | Test System: AMES SALMONELLA TYPHIMURIUM, Strain/Indicator: TA7005, Metabolic Activation: NONE, Method: FLUCTUATION (MICROTITER) active; positive | Test System: AMES SALMONELLA TYPHIMURIUM, Strain/Indicator: TA7005, Metabolic Activation: RAT LIVER S-9, AROCLOR 1254, Method: FLUCTUATION (MICROTITER) active; positive | Test System: AMES SALMONELLA TYPHIMURIUM, Strain/Indicator: TA7006, Metabolic Activation: NONE, Method: FLUCTUATION (MICROTITER) active; positive | Test System: AMES SALMONELLA TYPHIMURIUM, Strain/Indicator: TA7006, Metabolic Activation: RAT LIVER S-9, AROCLOR 1254, Method: FLUCTUATION (MICROTITER) active; positive | Test System: E. COLI, Strain/Indicator: WP2 (PKM101), Metabolic Activation: NONE, Method: STANDARD PLATE active; positive | Test System: E. COLI, Strain/Indicator: WP2 UVRA (PKM101), Metabolic Activation: NONE, Method: STANDARD PLATE active; positive
inactive: Test System: AMES SALMONELLA TYPHIMURIUM, Strain/Indicator: TA98, Metabolic Activation: RAT LIVER S-9, AROCLOR 1254, Method: FLUCTUATION (MICROTITER) inactive; negative | Test System: AMES SALMONELLA TYPHIMURIUM, Strain/Indicator: TA7001, Metabolic Activation: NONE, Method: FLUCTUATION (MICROTITER) inactive; negative | Test System: AMES SALMONELLA TYPHIMURIUM, Strain/Indicator: TA7002, Metabolic Activation: RAT LIVER S-9, AROCLOR 1254, Method: FLUCTUATION (MICROTITER) inactive; negative | Test System: AMES SALMONELLA TYPHIMURIUM, Strain/Indicator: TA7003, Metabolic Activation: NONE, Method: FLUCTUATION (MICROTITER) inactive; negative | Test System: AMES SALMONELLA TYPHIMURIUM, Strain/Indicator: TA7003, Metabolic Activation: RAT LIVER S-9, AROCLOR 1254, Method: FLUCTUATION (MICROTITER) inactive; negative

Cc1ccc(N=Nc2c(O)c(C(=O)O)cc3ccccc23)cc1S(=O)(=O)O
inactive: Test System: AMES SALMONELLA TYPHIMURIUM, Strain/Indicator: TA98, Metabolic Activation: NONE, Method: STANDARD PLATE inactive; negative | Test System: AMES SALMONELLA TYPHIMURIUM, Strain/Indicator: TA98, Metabolic Activation: RAT, LIVER, S-9, Method: STANDARD PLATE inactive; negative | Test System: AMES SALMONELLA TYPHIMURIUM, Strain/Indicator: TA100, Metabolic Activation: NONE, Method: STANDARD PLATE inactive; negative | Test System: AMES SALMONELLA TYPHIMURIUM, Strain/Indicator: TA100, Metabolic Activation: RAT, LIVER, S-9, Method: STANDARD PLATE inactive; negative

Oc1cc(O)c2c(c1)O[C@H](c1ccc(O)c(O)c1)[C@@H](O)C2
inactive: Test System: Ames Salmonella typhimurium, Strain/Indicator: TA102, Metabolic Activation: None, Method: Preincubation inactive; negative | Test System: Ames Salmonella typhimurium, Strain/Indicator: TA102, Metabolic Activation: Rat, Liver, S-9, Aroclor 1254 in 0.154 M KCl, Method: Preincubation inactive; negative

CCCOS(=O)(=O)OCCC
active: End Point: In vitro micronucleus, Test System: Chinese Hamster Ovary (CHO-WBL) cells, Metabolic Activation: None active; positive (p<0.01)

CC/C(=C(/c1ccc(OCCN(C)C)cc1)c1ccc(OP(=O)(O)O)cc1)c1ccc(C(C)C)cc1
inactive: Test System: AMES SALMONELLA TYPHIMURIUM, Strain/Indicator: TA98, Metabolic Activation: NONE, Method: PREINCUBATION inactive; negative | Test System: AMES SALMONELLA TYPHIMURIUM, Strain/Indicator: TA98, Metabolic Activation: RAT, LIVER, S-9, Method: PREINCUBATION inactive; negative | Test System: AMES SALMONELLA TYPHIMURIUM, Strain/Indicator: TA100, Metabolic Activation: NONE, Method: PREINCUBATION inactive; negative | Test System: AMES SALMONELLA TYPHIMURIUM, Strain/Indicator: TA100, Metabolic Activation: RAT, LIVER, S-9, Method: PREINCUBATION inactive; negative | Test System: AMES SALMONELLA TYPHIMURIUM, Strain/Indicator: TA1535, Metabolic Activation: NONE, Method: PREINCUBATION inactive; negative | Test System: AMES SALMONELLA TYPHIMURIUM, Strain/Indicator: TA1535, Metabolic Activation: RAT, LIVER, S-9, Method: PREINCUBATION inactive; negative | Test System: AMES SALMONELLA TYPHIMURIUM, Strain/Indicator: TA1537, Metabolic Activation: NONE, Method: PREINCUBATION inactive; negative | Test System: AMES SALMONELLA TYPHIMURIUM, Strain/Indicator: TA1537, Metabolic Activation: RAT, LIVER, S-9, Method: PREINCUBATION inactive; negative | Test System: E. COLI, Strain/Indicator: WP2 UVRA, Metabolic Activation: NONE, Method: PREINCUBATION inactive; negative | Test System: E. COLI, Strain/Indicator: WP2 UVRA, Metabolic Activation: RAT, LIVER, S-9, Method: PREINCUBATION inactive; negative
